Measured values published in patent US20150071918A1, “PEPTIDES FOR THE TREATMENT OF CANCER” (H. LEE MOFFITT CANCER CENTER AND RESEARCH INSTITUTE, INC., priority 2012, published 2015).
*1 amine or outer side, *2 acyl side, *3 side chain or, on linkers, in order; H or OH if unused. Where a SMILES comes first, the peptide text is derived from it. Bridges are numbered along the chain shown (N, C = ends). [ ]: non-standard residue; d: D form. The star is where a group is joined. dProlinol(O-CH2CO) = O=C(COC[C@H]1CCCN1[*:1])[*:2]; N(2-Aminoethyl)Gly = O=C(CN(CCN[*:3])[*:1])[*:2]; Nle = CCCC[C@H](N)C(=O)O; Ms = CS(=O)(=O)*

Legend:
[1] = tested on: normal CD34-positive cells; experiment: Cell death in CD34+ cells from normal individuals; format: cell-based, human; settings: 24 hours
Protocol: FIG. 45. Primary CD34+AML cells are sensitive to HM-27 (MTI-101) while their normal counterparts are not. Enriched CD34+ cells from peripheral blood and bone marrow of normal individuals were treated with varying doses of HM-27 for 24 hours and then analyzed for cell death as described in the Materials and Methods.
FIG. 64. MTI-101 induces cell death in primary CD34 progenitor cells from AML patient. […] CD34-positive cells were enriched using immunomagnetic beads in primary AML samples and normal bone marrow aspirates. Cell death was measured by annexin V positivity and FACS analysis.
Cells were collected after incubation with HM-27 and analyzed for markers of cell death indicative of either apoptosis, autophagy or necrosis. BM-MNCs were isolated from marrow aspirates of AML patients and normal individuals by Ficoll-Paque centrifugation and further enriched for CD34+ cells using immunomagnetic beads. Cell death was assessed by TO-PRO-3 staining followed by FACS analysis.

[2] = tested on: cleaved caspase-3, ATP in NCI-H929 and U266 MM cells; experiment: Mechanism of cell death in MM cells (cleaved caspase-3, ATP, ROS); format: cell-based
Protocol: FIGS. 56A-56F. […] FIG. 56A: Chemical structure of MTI-101 (also referred to herein as HM-27). FIG. 56B: Direct comparison of HYD1 and MTI-101 in NCI-H929 cells. […] FIG. 56F: NCI-H929 and U266 cells were treated with MTI-101 or tert-butyl hydrogen peroxide as a positive control for 1 hour, stained with CellRox Green for 30 minutes and washed, with FACS analysis to determine ROS production. All experiments were run in triplicate and repeated 3 independent times. Statistical significance using ANOVA, *P≦0.05. Similar to linear peptide HYD1, the cyclized peptide MTI-101 induces caspase independent cell death in myeloma cell lines.

H929-60 cell line = experiment: Cross-resistance in cell line selected for resistance to HYD1; format: cell-based; settings: H929-60, selected for resistance to HYD1
H929 cells = experiment: Growth inhibition by MTT, combination index (CalcuSyn), 72 hours; format: cell-based, human; settings: H929, 72 hours
Protocol: FIGS. 59A-59B. H929 cells were treated with varying concentrations of MTI-101 alone or in combination with either chloroquine (FIG. 59A), or bortezomib (FIG. 59B). Following 72 hours of drug treatment growth inhibition was determined by MTT analysis. Data generated were used to calculate the combination index (CI) using CalcuSyn software developed by Chou and Talalay. MTI-101 is synergistic with bortezomib (a proteosome inhibitor) and chloroquine (an inhibitor of autophagy).

[3] = tested on: CD138 cells from newly diagnosed or relapsed patients; experiment: Cell death in CD138 cells enriched from bone marrow aspirates of myeloma patients, annexin V and FACS, 24 hours; format: cell-based, human; settings: 10 μM MTI-101, 24 hours
Protocol: FIGS. 60A-60D. CD138 cells were enriched from the bone marrow aspirates of consented newly diagnosed or relapsed patients and were treated with 10 μM MTI-101, 10 μM Chloroquine or 10 nM Bortezomib or the combination of both agents. Following 24 hours of drug treatment, dell death was measured by annexin V staining and FACS analysis.

[4] = tested on: lung cancer (LC) cell lines; experiment: High-throughput CellTiter-Blue cell viability assay in lung cancer cell lines; format: cell-based; settings: IC50 values shown only in figure
Protocol: FIG. 35 is a graph showing IC-50 levels of 24 lung cancer (LC) cell lines treated with cyclized HYD1 (MTI-101). The activity of c-HYD1 was screened using a high-throughput CellTiter-Blue cell viability assay. Cell viability was assessed by the ability of the remaining viable cells to bioreduce resazurin to resorufin. Resazurin is dark blue in color and has little intrinsic fluorescence until it is reduced to resorufin (579 nm Ex/584 nm Em). The change in fluorescence was measured with a Synergy 4 microplate reader (Bio-Tek Instruments, Inc.). […] IC50s were determined as the concentration of drug required for 50% reduction in growth/viability. Shown is the mean IC50 value for each lung cancer cell line tested. Experiments were repeated 2-3 times.
FIG. 67. […] IC50 values were calculated from survival curves and the mean value is represented (n=2 independent experiments).

5TGM1 cells = experiment: 5TGM1 murine in vivo myeloma model, survival; set-up: species or system C57BL/KaLwRij mice; settings: 5TGM1 model, dosing 3× weekly for three weeks
Protocol: FIG. 61B: 5TGM1 model: One million 5TGM1 cells were injected i.v. in C57BL/KaLwRij mice and allowed to engraft for 10 days prior to drug treatment. The dosing scheme for all drugs was 3× weekly for three weeks. Surrogate markers of morbidity include hind leg paralysis and/or lethargic behavior. All mice were euthanatized at day 100.
One million 5TGM1 cells were injected i.v. in C57BL/KaLwRij mice and allowed to engraft for 10 days prior to drug treatment. […] The dosing scheme for melphalan was twice (day 10 and day 14).

CCCC[C@@H]1NC(=O)CN(S(C)(=O)=O)CCNC(=O)[C@H](CCCCN)NC(=O)[C@H](CC(C)C)NC(=O)[C@H](CCCCN)NC(=O)[C@H](CC(C)C)NC(=O)[C@H](CCCCN)NC(=O)COC[C@H]2CCCN2C(=O)[C@H](Cc2c[nH]c3ccccc23)NC(=O)[C@H](C)NC(=O)[C@H](C(C)C)NC(=O)[C@H](C(C)C)NC1=O [MTI-101] (Ms-[N(2-Aminoethyl)Gly][Nle]VVAW[dProlinol(O-CH2CO)]KLKLK; lactam 1-C)
cell death in normal CD34+ cells [1]: devoid of activity in normal CD34-positive cells | cell death in normal CD34+ cells ([1]; listed as HM-27): CD34+ cells from normal individuals are not sensitive to HM-27 | cleaved caspase-3 activity in MM cells [2]: does not induce cleaved caspase-3 activity | total cellular ATP in MM cells [2]: reduces total cellular levels of ATP in NCI-H929 and U266 cells | cross-resistance (H929-60 cell line): cross-resistance in the H929-60 cell line | combination with bortezomib (H929 cells): synergistic | combination with chloroquine (H929 cells): synergistic | effect of 10 nM Bortezomib on MTI-101 activity ([3]; newly diagnosed patients): increased the activity of MTI-101 in primary patient specimens obtained from newly diagnosed patients | effect of 10 μM Chloroquine on MTI-101 induced cell death ([3]; relapsed myeloma patients): increased the activity of MTI-101 induced cell death in specimens obtained from relapsed myeloma patients | activity in primary patient specimens ([3]; relapsed vs newly diagnosed): more active in specimens obtained from relapsed multiple myeloma (MM) patients | growth of lung cancer cell lines [4]: inhibits the growth of several lung cancer cell lines | survival (5TGM1 cells): increases survival in the 5TGM1 murine in vivo model
